{
  "source": "patent US11311568B2",
  "about": "“Therapeutic pharmaceutical composition for cancer including miRNA” (Purmx Therapeutics, Inc., priority 2017, dated 2022)",
  "key": {"[1]": {"test_system": "malignant pleural mesothelioma cell strain EHMES-10", "assay": "Antitumor effect in vivo, intrathoracic orthotopic transplantation model mouse", "set-up": "species or system mice (C-B-17/Icr-scid/scid Jcl)", "protocol": "The tumor suppression effect of miR-3140-3p in vivo was investigated with intrathoracic orthotopic transplantation model mouse.\n(§1) Six weeks-old male mice (C-B-17/Icr-scid/scid Jcl) were used as mice. Malignant pleural mesothelioma cell strain EHMES-10 which expresses the luciferase gene was used as the tumor cell.\nThe experiment protocol is shown below.\n(§2) 1: Mice were intraperitoneally administered 0.1 mL per 10 g of body weight of a mixed anesthetic drug of medetomidine hydrochloride, midazolam, and butorphanol tartrate.\n(§3) 2: After anesthesia, mouse chest hair was shaved, and an incision was made in the epidermis with scissors.\n(§4) 3: In the mouse pleural cavity 100 μL of tumor cells (3×10^7 cells/mL) was transplanted with a 27 G syringe for insulin.\n4: Three days after transplantation, imaging of tumor cells was performed with IVIS Spectrum CT In vivo Imaging System.\n(§5) 5: After imaging, grouping was performed with successfully transplanted mice.\n6: Mice were intraperitoneally administered 0.1 mL per 10 g of body weight of a mixed anesthetic drug of medetomidine hydrochloride, midazolam, and butorphanol tartrate to anesthetize the mice.\n7: After anesthesia, 100 μL of miRNA/A6K mixture was administered in the mouse pleural cavity.\n8: Imaging was performed every week from the first imaging, and tumor expansion was observed.\n9: The time and date of death of the mice was recorded, and mice survival rate was calculated.\nThe mixed anesthetic drug of medetomidine hydrochloride, midazolam, and butorphanol tartrate was prepared as in Table 4 below. The miRNA/A6K mixture was prepared as in Table 5. Moreover, the control group was administered the RNA shown in Table 6 instead of the miRNA of the present invention.\nNote that in order to improve expression efficiency, miRNA was administered as a double-strand in combination with a complementary strand comprising partial mismatch."}, "[2]": {"test_system": "malignant pleural mesothelioma cell strain EHMES-10", "assay": "Comparison of antitumor effect with cisplatin in vivo, pleural cavity transplantation", "set-up": "species or system mice (C-B-17/Icr-scid/scid Jcl)", "conditions": "miRNA/A6K in pleural cavity versus cisplatin 6 mg/kg intraperitoneal, EHMES-10 in pleural cavity, FIGS. 30-33", "text": "In order to investigate the relative superiority of antitumor effect of miR-3140-3p, the tumor suppression effect of cisplatin which is the first-line drug of malignant pleural mesothelioma and the tumor suppression effect of miR-3140-3p were compared in vivo.\nas §1\nThe protocol is shown below.\nas §2, §3, §4\n4: Four days after transplantation, imaging of tumor cells was performed with IVIS Spectrum CT In vivo Imaging System.\nas §5\n6: Mice were intraperitoneally administered 0.1 mL per 10 g of body weight of a mixed anesthetic drug of medetomidine hydrochloride, midazolam, and butorphanol tartrate to anesthetize the mice. […]"}},
  "data": [
    {"substance": "miR-3140-3p: Mature-miRNA, AGCUUUUGGGAAUUCAGGUAGU (SEQ ID NO. 2) (listed as RNA, chemistry not given here; listed as Homo sapiens)", "values": [
      {"measurement": "tumor reduction by imaging", "setting": "[1]; one administration of miRNA/A6K in pleural cavity, 3.2 nmol (45 μg) per mouse, Day 10 to Day 24 after transplantation, FIG. 20", "value": "tumor reduction was seen"},
      {"measurement": "tumor expansion (imaging results digitized)", "setting": "[1]; one administration of miRNA/A6K in pleural cavity, FIG. 21", "value": "significantly suppressed tumor expansion"},
      {"measurement": "survival rates of mice", "setting": "[1]; one administration of miRNA/A6K in pleural cavity, FIG. 22", "value": "survival rates of mice had improved"},
      {"measurement": "survival rates of mice", "setting": "[1]; three administrations of miRNA/A6K in pleural cavity, FIG. 28", "value": "more improved"},
      {"measurement": "suppression of malignant pleural mesothelioma (imaging, survival)", "setting": "[1]; three administrations of miRNA/A6K in pleural cavity, FIGS. 26-28", "value": "significantly suppressed malignant pleural mesothelioma"},
      {"measurement": "suppression of malignant pleural mesothelioma (imaging, survival)", "setting": "[1]; two administrations of miRNA/A6K in pleural cavity, FIGS. 23-25", "value": "significantly suppressed malignant pleural mesothelioma"},
      {"measurement": "antitumor effect (tumor suppression, survival rates) compared with cisplatin", "setting": "[2]", "value": "equivalent or higher compared to cisplatin"}
    ]}
  ]
}
